Measurements: patent US8063025B2, “Nucleoside prodrugs and uses thereof” (Metabasis Therapeutics, Inc., priority 2007, dated 2011)
Where two headings read alike, the source gives them in different places.

Columns and labels:
HCV [1] = settings: phase 2 study, 1500 mg BID for 14 days; cited from earlier work
rat hepatocytes = experiment: NTP generation in rat hepatocytes; assay type: in vitro ADME, male Wistar rats; settings: for Rat hepatocyte NTP: Table 2
Description: Hepatocytes were prepared from male Wistar rats (250-300 g) according to the procedure of Berry and Friend (Berry, M. N.; Friend, D. S. J. Cell Biol. 1969, 43, 506-520) as modified by Groen (Groen, A. K.; Sips, H. J.; Vervoom, R. C.; Tager, J. M. Eur. J. Biochem. 1982, 122, 87-93). Hepatocytes (20 mg/mL wet weight, >85% trypan blue viability) were incubated at 37° C. in 2 mL of Krebs-bicarbonate buffer containing 20 mM glucose, and 1 mg/mL BSA for 2 h in the presence of 10 μM nucleoside or prodrug (from 10 mM stock solutions in DMSO, n>4).
Following the incubation of 4′-azidocytidine analogues, 1600 μL aliquot of the cell suspension was centrifuged and 300 μL of acetonitrile was added to the pellet, vortexed and sonicated until the pellet broke down. Then 200 μL of water was added to make a 60% acetonitrile solution. After 10 min centrifugation at 14,000 rpm, the resulting supernatant was transferred to a new vial and evaporated to near dryness in a Savant SpeedVac Plus at room temperature. The dried residue was reconstituted with 200 μL of water and the mixture was centrifuged for 10 min at 14,000 rpm. A mixture of 35 μL aliquot of supernatant and 35 μL of mobile phase A (20 mM N—N-dimethylhexylamine and 10 mM propionic acid in 20% methanol) was analyzed by LC-MS/MS (Applied Biosystems, API 4000) equipped with an Agilent 1100 binary pump and a LEAP injector. NTP was detected by using MS/MS mode (M-/78.8) and quantified based on comparison to a standard of 2′-C-methyladenosine-5′-triphosphate for 4′-azidocytidine and the compound described in Example 1.
Following incubation of the 4′-azidouridine analogues, 1600 μL aliquot of the cell suspension was centrifuged and 500 μL of acetonitrile containing 0.1 mg/mL dicyclohexylcarbodiimide (DCCD) and 0.1% ammonium hydroxide was added to the pellet and vigorously mixed by vortexing. Liver extracts were analyzed by LC-MS/MS using a Luna NH2 column (5 micron, 2×50 mm, Phenomenex) fitted with a SecurityGuard C18 guard column (5 micron, 4.0×2.0 mm, Phenomenex) and eluted with a gradient from mobile phase A (10 mM ammonium acetate in 50% acetonitrile) to B (1 mM ammonium acetate in 50% acetonitrile containing 1% concentrated ammonium hydroxide) at a flow rate of 0.6 mL/min. The injector temperature was set at 4° C. 4′-AUMP, 4′-AUDP, and […] were detected using the MS/MS mode (364.1/150.8 for 4′-AUMP, 444.1/176.8 for 4′-AUDP, and 524.1/158.9 for 4′-AUTP) and quantified by comparison of peak areas to standard curves obtained by spiking known concentrations of the analytes to blank liver extract.

[2] = Evaluation of liver NTP levels in rat; assay type: in vivo, Sprague-Dawley or Wistar rats; settings: i.v. administration as printed
[3] = molecular target: T1, HCV polymerase (NS5B570n-Con1) (Hepatitis C virus genotype 1b, UniProt Q9WMX2); experiment: HCV NS5B RNA polymerase activity; assay type: biochemical, HCV Con1 strain
T1 construct: contains a 21 amino acid deletion at the C-terminus relative to the full-length HCV polymerase; 6-histidine (N); made in house; host or cells: E. coli BL21 (DE) pLysS, plasmid pET17b
Description: The enzymatic activity of HCV polymerase (NS5B570n-Con1) was measured as the incorporation of radiolabeled nucleotide monophosphates into acid insoluble RNA products. Unincorporated radiolabeled substrate was removed by filtration and scintillant was added to the washed and dried filter plate containing radiolabeled RNA product. The amount of RNA product generated by NS5B570-Con1 at the end of the reaction was directly proportional to the amount of light emitted by the scintillant.
The N-terminal 6-histidine tagged HCV polymerase, derived from HCV Con1 strain, genotype 1b (NS5B570n-Con1) contains a 21 amino acid deletion at the C-terminus relative to the full-length HCV polymerase and was purified from E. coli strain BL21 (DE) pLysS. The construct, containing the coding sequence of HCV NS5B Con1 (GenBank accession number AJ242654) was inserted into the plasmid construct pET17b, downstream of a T7 promoter expression cassette and transformed into E. coli. […]
The amount of light emitted from the scintillant was converted to counts per minute (CPM) on a Topcount® plate reader (Perkin-Elmer, Energy Range: Low, Efficiency Mode: Normal, Count Time: 1 min, Background Subtract: none, Cross talk reduction: Off).
Data was analyzed in Excel® (Microsoft®) and ActivityBase® (Idbs®). […] All data was expressed as a percentage of the positive control. […]

HCV [4] = settings: chimpanzee, 7 days, cited from earlier work
[5] = tested on: hepatitis C virus replicon; settings: cited from earlier work
[6] = Rat portal vein pharmacokinetic study; set-up: species or system Male Hanover-Wistar (HW) rats; settings: in vivo, 7 mg/kg
Description: Pharmacokinetic analysis of the esters was carried out as described in Example 2. The calculated value for % Fhepatic is the ratio of measured of the quantity present in the post-hepatic
[formula] circulation (AUCjugular) to the pre-hepatic concentration (AUCportal). This value reflects uptake of the prodrug by hepatocytes. […] These values reflect observed concentrations of non-esterified drug phosphate 26a. The calculated value % Fgut is the ratio of the concentration
[formula] of 26a observed in the portal vein which directly reflects absorption through the gut compared to the concentration observed in the jugular vein after i.v. administration of the same dose. Increased absorption through the gut will increase the observed % Fgut.
Male Hanover-Wistar (HW) rats were obtained from Charles River Laboratories (Wilmington, Mass.). […] Plasma samples were extracted by protein precipitation and analyzed by liquid chromatography coupled to tandem mass spectrometry (LC/MS/MS) for concentrations of 26b, 26a and 20.
Pharmacokinetic parameters were calculated using a non-compartmental model in Watson software (Watson, Thermo Fisher, Waltham, Mass.). % Fhepatic was calculated from the dose-normalized area under the curve (AUC) values obtained from sampling either the portal or jugular vein after PO administration as follows: […]

CC(C)C(=O)OC[C@@]1(N=[N+]=[N-])O[C@@H](n2ccc(N)nc2=O)[C@H](OC(=O)C(C)C)[C@@H]1OC(=O)C(C)C [Example R1626]
mean reduction in serum viral titer (HCV [1]): 1.2 log10

[N-]=[N+]=N[C@]1(CO[P@@]2(=O)OCC[C@@H](c3cccc(Cl)c3)O2)O[C@@H](n2ccc(N)nc2=O)[C@H](O)[C@@H]1O [Example 1, 4′-azido-cis-5′-O-[4-(S)-(3-chlorophenyl)-2-oxo-1,3,2-dioxaphosphorinan-2-yl]-cytidine]
nucleoside triphosphate levels in treated rat hepatocytes (rat hepatocytes): dose dependent increase
NTP levels after administration to a rat [2]: very low levels

[N-]=[N+]=N[C@]1(COP(=O)(O)O)O[C@@H](n2ccc(=O)[nH]c2=O)[C@H](O)[C@@H]1O [4′-AU monophosphate]
IC50 [3]: 218 nM

CC(C)C(N)C(=O)O[C@@H]1[C@@H](CO)O[C@@H](n2ccc(N)nc2=O)[C@]1(C)O (some centres unmarked) [NM283]
reduction in viral titer (HCV [4]; 16.6 mg/kg/day): 1.15 log10

[N-]=[N+]=N[C@]1(CO)O[C@@H](n2ccc(=O)[nH]c2=O)[C@H](O)[C@@H]1O [4′-azidouridine]
Rat hepatocyte NTP (rat hepatocytes; 10 μM): <LOQ
EC50 [5]: > 100000 nM
potency in the cell-based replicon assay [5]: inactive

[N-]=[N+]=N[C@]1(CO[P@@]2(=O)OCC[C@@H](c3cccc(Cl)c3)O2)O[C@@H](n2ccc(=O)[nH]c2=O)[C@H](O)[C@@H]1O [Example 2, 4′-azido-cis-5′-O-[4-(S)-(3-Chlorophenyl)-2-oxo-1,3,2-dioxaphosphorinan-2-yl]uridine]
nucleoside triphosphate levels in treated rat hepatocytes (rat hepatocytes): dose dependent increase
NTP levels after administration to a rat [2]: elevated levels

[N-]=[N+]=N[C@]1(CO)O[C@@H](n2ccc(N)nc2=O)[C@H](O)[C@@H]1O [Example R1479, 4′-azidocytidine]
Rat hepatocyte NTP (rat hepatocytes; 10 μM): <LOQ
nmol NTP/g @ 10 μM (±SEM) (rat hepatocytes; rat hepatocytes, 10 μM, 2 h, Table 4): <LOQ
EC50 [5]: 1280 nM
potency in the cell-based replicon assay [5]: reasonable potency

[N-]=[N+]=N[C@]1(COP2(=O)OCC[C@@H](c3ccc(Br)cc3F)O2)O[C@@H](n2ccc(=O)[nH]c2=O)[C@H](O)[C@@H]1O (some centres unmarked) [Example 43]
circulating diester after oral dosing [6]: no circulating diester is observed

C[C@H](NP(=O)(OC[C@@]1(N=[N+]=[N-])O[C@@H](n2ccc(=O)[nH]c2=O)[C@H](O)[C@@H]1O)Oc1cccc2ccccc12)C(=O)OCc1ccccc1 (some centres unmarked) [Example R0142]
EC50 [5]: 220 nM

C[C@@]1(O)[C@H](O)[C@@H](CO)O[C@H]1n1ccc2c(N)ncnc21 [MK-0608]
reduction in viral titer (HCV [4]; intravenous dose of 2 mg/kg/day): > 5 log10
